From the NIST ThermoML archive (doi:10.1016/j.jct.2008.05.017)
Numbers after ± are expanded uncertainties.

Assay: xn = mol fraction of the nth substance listed
Conditions: Liquid; for mass density: Bellows volumetry; for Critical density: bellows voluometer

Q: For `N` [ammonia] + O, which mass density (436.56 K, 14191 kPa, x1 = 0.9098) is on record?
A: 263.5 ± 0.5 kg/m3

Q: And the mass density (436.56 K, 14208 kPa, x1 = 0.9098)?
A: 264.8 ± 0.5 kg/m3

Q: And the mass density (436.56 K, 14217 kPa, x1 = 0.9098)?
A: 265.4 ± 0.5 kg/m3

Q: What about the mass density (436.56 K, 14225 kPa, x1 = 0.9098) of the same compound?
A: 265.9 ± 0.5 kg/m3

Q: What about the mass density (478.58 K, 17311 kPa, x1 = 0.7757) of the same compound?
A: 284.3 ± 0.5 kg/m3

Q: And the mass density (478.58 K, 17320 kPa, x1 = 0.7757)?
A: 284.7 ± 0.5 kg/m3

Q: What about the mass density (478.58 K, 17329 kPa, x1 = 0.7757) of the same compound?
A: 285.1 ± 0.5 kg/m3

Q: And the mass density (478.58 K, 17347 kPa, x1 = 0.7757)?
A: 285.8 ± 0.4 kg/m3

Q: And the mass density (503.06 K, 18697 kPa, x1 = 0.6808)?
A: 294.8 ± 0.5 kg/m3

Q: What about the mass density (503.06 K, 18706 kPa, x1 = 0.6808) of the same compound?
A: 295.2 ± 0.5 kg/m3

Q: And the mass density (503.06 K, 18715 kPa, x1 = 0.6808)?
A: 295.6 ± 0.5 kg/m3

Q: What about the mass density (503.06 K, 18724 kPa, x1 = 0.6808) of the same compound?
A: 296 ± 0.5 kg/m3

Q: And the mass density (503.06 K, 18733 kPa, x1 = 0.6808)?
A: 296.3 ± 0.5 kg/m3

Q: What about the mass density (503.06 K, 18743 kPa, x1 = 0.6808) of the same compound?
A: 296.6 ± 0.5 kg/m3

Q: What about the mass density (503.06 K, 18751 kPa, x1 = 0.6808) of the same compound?
A: 297 ± 0.5 kg/m3

Q: And the Critical density (x1 = 0.6808)?
A: 294.6 ± 1 kg/m3

Q: What about the Critical density (x1 = 0.7757) of the same compound?
A: 284 ± 1.2 kg/m3

Q: And the Critical density (x1 = 0.9098)?
A: 262.9 ± 1.8 kg/m3
